# Assay results reported in patent US12528772B2, “Formulations of T-type calcium channel modulators and methods of use thereof” (Praxis Precision Medicines, Inc., priority 2019, dated 2026).
# Test system: T-type calcium channels in the thalamocortical circuit
# Assay: Phase 1 sleep EEG in healthy volunteers (NREM sigma)
# Assay type: in vivo, human
# Details: FIG. 12
# Experimental: This was a 2-part, Phase 1 double blind, placebo controlled trial to assess the safety, tolerability, PK, and PD (including the KSS, the KDT, the SQSQ and 24-hour EEG recordings), of single, ascending (Part A: 20, 40, and 60 mg)) and multiple, ascending (Part B: 20 and 40 mg for 8 days) doses of the 20 mg tablet (formulation 3) in healthy participants. […] Variability in Cmax and AUC increased with increasing dose following a single oral dose of the 20 mg tablet formulation (formulation 3).
# The T-type calcium channels expressed in the thalamus are critically involved in the generation and modulation of sleep spindles which are prominent thalamocortical oscillations during NREM sleep. Sleep spindles are detected in the EEG as the sigma frequency band (11-15 Hz) (FIG. 12).
smiles,measurement,value
CC(C)(C)NC(=O)CN1CCC(CNC(=O)c2cc(F)cc(Cl)c2)CC1 [the compound of formula (I)],"power in the sigma frequency band (11-15 Hz), NREM sleep EEG",decrease of power in the sigma frequency band
